Columns and labels:
Assay type in all cases: cell-based
[1] = tested on: primary wild-type mouse splenocytes; test: radiosensitivity of primary splenocytes after exposure to DIDS (cell counts after 2.5 Gy); conditions: Splenocyte, light or radiation study, 36 h, read-out: reduction in viability
Description: To validate DIDS as a potential agent, and to confirm its DSB repair inhibitory activity, radiosensitivity of primary wild-type mouse splenocytes was measured after exposure to DIDS. A total of 2×10^6 splenocytes were suspended in medium with 0, 300 μM, 600 μM or 1000 μM DIDS, or in vehicle-only control, and immediately given 2.5 Gy ionizing irradiation using a ^137Cs irradiator (Shepard). Cells were then cultured in medium containing the same DIDS concentration, and cell counts were determined after 36 hours recovery time.

[2] = tested on: primary mouse B-cells from AID knockout mice (AID−/−); test: viable cell counts (Trypan blue) of primary B-cells cultured with DIDS; conditions: 0-150 μM DIDS
Description: (§1) Primary mouse B-cells were isolated from spleens of adult C57BL/6J mice (AID+/+) and from AID knockout mice (AID−/−) (see Example 1 and 2). 1×10^^6 primary B-cells were seeded into tissue culture plates, stimulated with 1 μg/ml anti-CD40 antibodies (anti-CD40; BD Pharmingen; Cat. No. 553721) and 25 ng/ml IL-4 or with anti-CD40 alone on day 0 and day 2. 0, 50 μM, 100 μM or 150 μM of DIDS was added at time 0 and 2 days after culture initiation, when culture volumes were adjusted to accommodate cell growth. The cells were cultured over 6 days. The number of viable cells were counted after staining with Trypan blue using a hemacytometer on days 1, 2, 3, 4 and 6. In FIG. 7 the number of viable primary B-cells from C57BL/6J mice (AID+/+) and AID-knockout mice (AID−/−) after treatment with DIDS is shown.

[3] = tested on: primary mouse B-cells from C57BL/6J mice (AID+/+); test: as above
Description: as §1

[4] = tested on: phospho-H2AX foci in mouse primary splenocytes (AID+/+ and AID−/−); test: phospho-H2AX foci in activated splenocytes exposed to DIDS; conditions: 150 micromolar DIDS
Excerpt: Mouse primary splenocytes isolated from 8-12 week old wild type (AID+/+) and AID-knockout (AID−/−) mice as described in Example 1 were exposed to 150 micromolar DIDS, and activated by anti-CD40 antibody plus interleukin-4, fixed and stained for the DNA break marker phospho-H2AX and for nuclear DNA using the fluorescent DNA staining dye 4′,6-diamidino-2-phenylindole (DAPI). In FIG. 16A the fraction of cells containing 0, 1-2, or greater than 2 phospho-H2AX positive foci was quantified for AID+/+ (filled bars) and AID−/− (open bars) cells. […] In FIG. 16B the proportion of phospho-H2AX positive cells (filled bars) versus phospho-H2AX negative cells (open bars) was quantified for AID+/+ in comparison to AID−/− cultures. […] In FIG. 16C the number of foci per cell was quantified for DIDS-treated AID+/+ (filled bars) versus AID−/− (open bars) cells. Data are expressed as the absolute number of cells (y-axis) harboring the indicated number of phosphor-H2AX foci (from 0 to >20; x-axis).

[5] = tested on: AID-expressing (AID+) primary human CLL cells; test: survival of primary human CLL cells cultured with DIDS (manual cytometry)
Description: AID-expressing (AID+) or AID-negative (AID−) primary human CLL cells were cultured as described in Example 4. […] […] The cell survival was scored by manual cytometry for viable cells after 2, 4, or 8 days of exposure.
Eight AID+ and eight AID− CLL samples were cultured in basic RPMI-1640 medium plus 30 micromolar DIDS, and survival was scored by manual cytometry for viable cells after 2, 4, 6, or 8 days. […] A total of 117 lymphoma or leukemia patients were studies, of which 106 were CLL patients. In 47% AID expression was determined by RT-PCR.

[6] = tested on: activated caspase 3 (AC3) in AID+ and AID− primary human CLL cells; test: activated caspase 3 (AC3) staining in primary human CLL cells treated with DIDS; conditions: 30 μM DIDS, 3 days in culture
Excerpt: Primary human CLL patient derived cells were obtained from peripheral bleeds collected at the time of routine clinical monitoring. Primary peripheral blood samples were collected via routine venipuncture into BD Vacutainer CPT Cell Separation Tubes. Samples were centrifuged to separate red blood cells (RBC) and then inverted to resuspend the mononuclear cells in their own plasma. Samples were stored overnight at the site of collection at room temperature then shipped via courier to the site of analysis. Each sample was tested for AID expression status by reverse transcription PCR (RT-PCR) to detect presence of the human AID mRNA (see Example 11). Samples were then divided into AID+ (those showing detectable levels of AID mRNA) and AID− (those showing no detectable AID mRNA above background) groups. Multiple independent cultures from different AID+ and AID− samples were initiated in standard RPMI-1640 medium containing 10% FBS plus either 0 or 30 μM DIDS. After 3 days in culture, cells from were fixed with paraformaldehyde, mounted on microscope coverslips, permeabilized by washing with weak detergent, and processed for immunofluorescent detection of the apoptosis marker activated caspase 3 (AC3) (primary antibody: cat. No. ab13847, Abcam; 1:100 dilution). Nuclear DNA was counterstained with 4′,6-diamidino-2-phenylindole (DAPI). […]

O=S(=O)([O-])c1cc(N=C=S)ccc1/C=C/c1ccc(N=C=S)cc1S(=O)(=O)[O-].[Na+].[Na+] [DIDS, 4,4′diisothiocyanostilbene-2,2′-disulfonic acid]
cytotoxicity at 600 µM [1]: ~25% | cytotoxicity at 1000 µM [1]: 87% | number of viable cells [2]: no significant change in cell viability | number of viable cells ([3]; 100 μM DIDS, stimulated with anti-CD40 + IL-4): decrease of B-cell viability | number of viable cells ([3]; 150 μM DIDS, stimulated with anti-CD40 + IL-4, days 1-6): greatly reduces the cell viability from day 3 on | number of viable cells ([3]; not stimulated with anti-CD40+IL-4): does not influence the cell viability | proportion of phospho-H2AX positive cells ([4]; AID+/+ in comparison to AID−/− cultures): higher percentage of phospho-H2AX positive cells | fraction of cells with greater than 2 phospho-H2AX foci ([4]; AID+/+ versus AID−/− cells): significant higher fraction of cells with greater than 2 foci | cell viability ([5]; 10 μM DIDS): significant effects on cell viability | cell survival (viable cells) ([5]; 30 micromolar DIDS, 2, 4 or 8 days): reduced cell viability | cell viability, AID-positive versus AID-negative ([5]; 30 micromolar DIDS, eight AID+ and eight AID− CLL samples, 2, 4, 6 or 8 days): more strongly reduces cell viability in AID-positive than in AID-negative primary human CLL cells | fraction of cells showing positive staining for AC3 [6]: higher fraction of AC3-positive cells

Reference: US10207988B2, “Methods and compositions for treatment of cancer and autoimmune disease” (THE JACKSON LABORATORY, priority 2011, dated 2019)
